Reference: patent US11529361B2, “Halogenated salicylanilides for treating Clostridium infections” (UNION therapeutics A/S, priority 2015, dated 2022)
In brackets after ≈: the same amount, converted by molar mass. Read-outs that look alike come from different tables or passages of the source.

What was measured:
[1] = test system: C. difficile clinical isolates; experiment: MIC determination by microbroth dilution per CLSI guideline (Example 1); format: cell-based, Clostridium difficile; details: Clostridioides difficile
[2] = test system: C. difficile clinical isolates; details: C. difficile strain ATCC 700057, reference control; cited from earlier work
C. difficile = details: published data (footnote a); cited from earlier work

CN[C@H](CC(C)C)C(=O)N[C@H]1C(=O)N[C@@H](CC(N)=O)C(=O)N[C@H]2C(=O)N[C@H]3C(=O)N[C@H](C(=O)N[C@H](C(=O)O)c4cc(O)cc(O)c4-c4cc3ccc4O)[C@H](O)c3ccc(c(Cl)c3)Oc3cc2cc(c3O[C@@H]2O[C@H](CO)[C@@H](O)[C@H](O)[C@H]2O[C@H]2C[C@](C)(N)[C@H](O)[C@H](C)O2)Oc2ccc(cc2Cl)[C@H]1O [Vancomycin]
MIC ([1]; read-out: C. difficile Strain 7-6011209 MIC): 0.125 µg/mL (≈ 0.0863 µM)
MIC ([1]; read-out: C. difficile Strain 12055 MIC): 0.25 µg/mL (≈ 0.173 µM)
expected MIC of reference control strain [2]: 1 µg/mL
Highest MIC observed (C. difficile): 16^a μg/mL
MIC90 (C. difficile): 2^a μg/mL
